Test results taken from PMC3486884 (PLoS Pathogens, 2012).
Several values for one entry are separate records, joined by “and”; a condition that tells them apart may be missing. Identical values can stand only once. Like-named read-outs stand apart in the source and are kept apart here.

Tests used:
HSV1 [1] = experiment: microbe, parasite or virus in culture; settings: Human alphaherpesvirus 1, read-out: IC50 (HSV1)
HRV1A, 2, 14, 16 = experiment: Infection assays with the HRV panel in HeLa cells; type: cell-based, human rhinovirus
rats = settings: cited from earlier work
[2] = Liposome dextran-FITC de-quenching; settings: read-out: FITC-fluorescence dequenching, half maximal efficacy; liposomes loaded at pH 5.15 with dextran-FITC
Experimental: Liposomes from soy phosphatidyl-choline were prepared in 100 mM acetate pH 5.15 containing 1 mM 4.4 kDa FITC-dextran using standard extrusion protocols yielding vesicles of an average size of 200 nm measured using a particle size analyzer (Nicomp 370, Nicomp, Port Richey, FL, USA). Non-encapsulated FITC-dextran was removed by size exclusion chromatography in a G25 column (Pharmacia) followed by extensive dialysis against 100 mM acetate pH 5.15 in a Floatalyzer with 50 kDa cut-off (Spectrumlabs). To measure fluorescence de-quenching FITC-dextran containing liposomes were diluted in PBS at 20–60 µg/ml, incubated with the respective compounds at room temperature and analysed for fluorescence using a plate reader (TECAN Safire II) with fluorescence TOP measurement settings at excitation of 483/10 nm and emission of 525/15 nm wavelength within 15 min. Control measurements of samples containing PBS, Triton X-100 or the compounds alone were carried out to measure background, maximal readout of the assay and auto-fluorescence of compounds. The data were normalized to the PBS control and background fluorescence was subtracted.

[3] = tested on: clathrin-coated vesicles (CCV); experiment: Acridine orange measurements in clathrin-coated vesicles; settings: AO red fluorescence assay
Experimental: CCV suspended in assay buffer (10 mM HEPES, pH7, 100 mM KCl, 1 mM EDTA) were incubated with 1 mM ATP, 2 µM AO (Molecular Probes). The ATPase reaction was initiated by adding MgCl2 to 1 mM and fluorescence was determined at 492/540 nm in a plate reader (Tecan, Männedorf, Switzerland) at room temperature after 10 min. BafA1 and samples without MgCl2 were used as controls.

CVB4 [4] = tested on: CVB4
HRV2 [5] = experiment: microbe, parasite or virus in culture; settings: Human rhinovirus sp., HRV2, HeLa, read-out: IC50 (HRV2)
CVB3 [6] = tested on: CVB3
HSV1 [7] = tested on: HSV1
HRV14 [8] = experiment: microbe, parasite or virus in culture; settings: Human rhinovirus sp., HRV14, HeLa, read-out: IC50 (HRV14)
CVB3 [9] = experiment: microbe, parasite or virus in culture; settings: Enterovirus B, CVB3, HeLa, read-out: IC50 (CVB3)
[10] = tested on: influenza virus (strain A/Puerto Rico/8/34/H1N1 depicted PR8)
HRV2 [11] = tested on: HRV2
HRV1A [12] = experiment: microbe, parasite or virus in culture; settings: Human rhinovirus sp.
[13] = pKa and log P quoted from the literature; type: physicochemical; settings: pH 7.4
CVA21 [14] = tested on: CVA21
HRV1A [15] = experiment: Full cycle infectivity assay (virus titer, TCID50); type: cell-based, human rhinovirus; settings: full cycle assays; BafA1 (0.5 nM), alone or drug combination
CVA21 [16] = experiment: microbe, parasite or virus in culture; settings: Coxsackievirus, CVA21, HeLa, read-out: IC50 (CVA21)
CVB4 [17] = experiment: microbe, parasite or virus in culture; settings: Enterovirus B, CVB4, HeLa, read-out: IC50 (CVB4)
HRV16 [18] = tested on: HRV16
[19] = tested on: influenza virus (strain A/Puerto Rico/8/34/H1N1 depicted PR8); experiment: microbe, parasite or virus in culture; settings: unidentified influenza virus, A549, read-out: IC50 (PR8)
HRV14 [20] = tested on: HRV14
HRV1A [21] = experiment: HRV1A infection of WI-38 human embryonic diploid airway cells; type: cell-based; settings: Human rhinovirus sp.
Experimental: A single cell high-content, image based infection assay was applied to measure infection in high throughput format. Viruses were added to cells in infection medium containing BSA (DMEM containing 25 mM HEPES if used outside of a CO2 cell culture incubator, supplemented with L-glutamine, 30 mM MgCl2 and 0.2% BSA (Sigma) for CV and HRV), or in infection medium containing trypsin-TPCK (DMEM supplemented with L-glutamine and TPCK-trypsin 1 µg/ml (Sigma) for FLU/PR8) and normal growth media for HSV. For all experiments, the multiplicity of infection (moi) was chosen such that approximately 20–40% of the cells were infected at 7 h post infection (pi) (HRV &CV), 8 h pi (FLU) or 18 h pi (HSV). Cells were fixed by adding 1/3 volume of a 16% para-formaldehyde solution, washed with PBS, PBS/25 mM NH4Cl and PBS, permeabilized with 0.2% Triton X-100 (Sigma), washed twice with PBS and blocked with PBS/1% BSA (Fraction V, Sigma). […] Routinely, 9–20 images per well were acquired yielding an average of 5000–12000 cells analysed per well and data point. […] Images were analyzed using a custom written Matlab routine. […]
Compounds were dissolved in dimethyl sulfoxid (DMSO, cell culture grade, Sigma) and added to cells in dilutions indicated with respective concentrations of solvent alone as controls. […] Infection was quantified by immune-staining for dsRNA. […]

HRV16 [22] = experiment: microbe, parasite or virus in culture; settings: Human rhinovirus sp., HRV16, HeLa, read-out: IC50 (HRV16)
[23] = cited from earlier work

O=C(Nc1ccc([N+](=O)[O-])cc1Cl)c1cc(Cl)ccc1O [niclosamide, 5-chloro-N-(2-chloro-4-nitrophenyl)-2-hydroxybenzamide, reference compound]
IC50 (HSV1 [1]): > 10000 nM and 14800 nM
IC50 (HRV1A, 2, 14, 16; Human rhinovirus sp., HRV1A, HeLa, read-out: IC50 (range over HRV1A, 2, 14, 16)): 840 to 1400 nM
effect of drug washout on the antiviral effect (HRV1A, 2, 14, 16; cells pre-treated 30 min or 18 h, washed with drug-free medium): completely abolished the antiviral effect
time of addition giving half maximal effects (HRV1A, 2, 14, 16; compound added before or post infection of HeLa cells with HRV): ≤ 30 min pi
effect of virus pre-treatment on the inhibition profile (HRV1A, 2, 14, 16; viruses pre-treated at up to 400 µM at 37°C for 30 min): did not affect the inhibition profile
acute oral toxicity LD50 (rats): > 5 g/kg body weight
EC50 [2]: 14000 nM
pH of isolated CCV [3]: neutralized the pH of CCV in a dose-dependent manner
TI (IC50 / CC50), CVB4 (CVB4 [4]): 5.22
IC50 (HRV2 [5]): 1010 nM
TI (IC50 / CC50), CVB3 (CVB3 [6]): < 0.4
TI (IC50 / CC50), HSV1 (HSV1 [7]): 1.37
IC50 (HRV14 [8]): 840 nM
IC50 (CVB3 [9]): > 50000 nM
TI (IC50 / CC50), PR8 [10]: 24.4
TI (IC50 / CC50), HRV2 (HRV2 [11]): 20.1
IC50 (HRV1A [12]; HeLa, read-out: IC50 (HRV1A)): 1040 nM
activity at 0.03 µM (HRV1A [12]; M-HeLa, 7 h, read-out: HRV1A infection (dsRNA), 0.03 µM): 98%
activity at 0.1 µM (HRV1A [12]; M-HeLa, 7 h, read-out: HRV1A infection (dsRNA), 0.10 µM): 96%
activity at 0.31 µM (HRV1A [12]; M-HeLa, 7 h, read-out: HRV1A infection (dsRNA), 0.31 µM): 90%
activity at 0.93 µM (HRV1A [12]; M-HeLa, 7 h, read-out: HRV1A infection (dsRNA), 0.93 µM): 39%
activity at 2.78 µM (HRV1A [12]; M-HeLa, 7 h, read-out: HRV1A infection (dsRNA), 2.78 µM): 4%
activity at 8.33 µM (HRV1A [12]; M-HeLa, 7 h, read-out: HRV1A infection (dsRNA), 8.33 µM): 5%
activity at 25 µM (HRV1A [12]; M-HeLa, 7 h, read-out: HRV1A infection (dsRNA), 25.00 µM): 4%
molecules in the deprotonated form [13]: about 99%
TI (IC50 / CC50), CVA21 (CVA21 [14]): 3.06
decrease of virus titers (HRV1A [15]): about five-fold
IC50 (CVA21 [16]): 6630 nM
IC50 (CVB4 [17]): 3880 nM
TI (IC50 / CC50), HRV16 (HRV16 [18]): 14.7
IC50 [19]: 830 nM
TI (IC50 / CC50), HRV14 (HRV14 [20]): 24.1
IC50 (HRV1A [21]): 1300 nM
IC50 (HRV16 [22]): 1380 nM
log P ([23]; pH 5.7): 5.63
log P ([23]; pH 7): 4.48
